Reference: US20260217711A1, “TRIAZOLOPYRIDINYL ETHER LINKED COMPOUNDS AS KINASE INHIBITORS” (Bristol-Myers Squibb Company, priority 2023, published 2026)

What follows are compounds tested on MLKL phosphorylation (pMLKL) in HT29-L23 cells (assay: MLKL Phosphorylation High-Content Assay). Settings: Homo sapiens, 6 h, necroptosis induced with human TNFα, SMAC mimetic and Z-VAD, read-out: LE pMLKL HC IC50.
Assay type: cell-based
Method: Following 6 h incubation at 37° C. […] MLKL phosphorylation was detected using anti-MLKL (phospho […]) antibody (Abcam #ab187091) (1:1000 dilution in Blocking Buffer [PBS supplemented with 0.1% BSA]) with ON incubation at 4° C. […] Following another three cycles of washes in PBS, the microplates were sealed, and cellular images were acquired in the Cellomics ArrayScan VTI high-content imager equipped with an X1 camera. […] The image sets were analyzed using the Compartmental Analysis Bioapplication software (Cellomics). The level of MLKL phosphorylation was quantified as […].

Row | Compound | IC50 [nM]
1 | Nc1nc2cc(-c3cccc(OCCC(F)(F)C(O)c4ccc(Cl)cc4)c3F)ccn2n1 (racemic) [Example 70, 4-(3-(2-amino-[1,2,4]triazolo[1,5-a]pyridin-7-yl)-2-fluorophenoxy)-1-(4-chlorophenyl)-2,2-difluorobutan-1-ol] | 1
2 | Nc1nc2cc(-c3cccc(OCCC(F)(F)COc4cc(Cl)ccn4)c3F)ccn2n1 [Example 1, 7-(3-(4-((4-chloropyridin-2-yl)oxy)-3,3-difluorobutoxy)-2-fluorophenyl)-[1,2,4]triazolo[1,5-a]pyridin-2-amine] | 140
3 | Nc1nc2cc(-c3cccc(OCCC(F)(F)C(O)c4ccccc4)c3F)ccn2n1 (racemic) [Example 69, 4-(3-(2-amino-[1,2,4]triazolo[1,5-a]pyridin-7-yl)-2-fluorophenoxy)-2,2-difluoro-1-phenylbutan-1-ol] | 3
4 | CC(O)(c1ccc(F)cc1)C(F)(F)CCOc1cccc(-c2ccn3nc(N)nc3c2)c1C(F)F (single isomer, unassigned) [Example 23, 5-(3-(2-amino-[1,2,4]triazolo[1,5-a]pyridin-7-yl)-2-(difluoromethyl)phenoxy)-3,3-difluoro-2-(4-fluorophenyl)pentan-2-ol] | 6000

Same assay, conditions: necroptosis induced with human TNFα, SMAC mimetic and Z-VAD, 6 h, read-out: LE pMLKL HC IC50

Row | Compound | IC50 [nM]
5 | CC(O)(c1ccc(Cl)cc1)C(F)(F)CCOc1c(F)ccc(-c2ccn3nc(N)nc3c2)c1F (single isomer, unassigned) [Example 45, 5-(3-(2-amino-[1,2,4]triazolo[1,5-a]pyridin-7-yl)-2,6-difluorophenoxy)-2-(4-chlorophenyl)-3,3-difluoropentan-2-ol] | 80
6 | CC(O)(c1ccccc1)C(F)(F)CCOc1cccc(-c2ccn3nc(N)nc3c2)c1F (single isomer, unassigned) [Example 67, 5-(3-(2-amino-[1,2,4]triazolo[1,5-a]pyridin-7-yl)-2-fluorophenoxy)-3,3-difluoro-2-phenylpentan-2-ol] | 4
7 | CC(O)(c1ccc(F)cc1)C(F)CCOc1cc(-c2ccn3nc(N)nc3c2)cc(F)c1F (single isomer, unassigned) [Example 93, 5-(5-(2-amino-[1,2,4]triazolo[1,5-a]pyridin-7-yl)-2,3-difluorophenoxy)-3-fluoro-2-(4-fluorophenyl)pentan-2-ol] | 140
8 | CC(N)(c1ccc(F)cc1)C(F)(F)CCOc1c(F)ccc(-c2ccn3nc(N)nc3c2)c1F (single isomer, unassigned) [Example 16, 7-(3-((4-amino-3,3-difluoro-4-(4-fluorophenyl)pentyl)oxy)-2,4-difluorophenyl)-[1,2,4]triazolo[1,5-a]pyridin-2-amine] | 20
9 | Cc1ccc(-c2ccn3nc(N)nc3c2)c(F)c1OCCC(F)(F)C(C)(O)c1ccc(F)cc1 (single isomer, unassigned) [Example 64, 5-(3-(2-amino-[1,2,4]triazolo[1,5-a]pyridin-7-yl)-2-fluoro-6-methylphenoxy)-3,3-difluoro-2-(4-fluorophenyl)pentan-2-ol] | 0.1
10 | Nc1nc2cc(-c3cccc(OCCC(F)C(O)c4ccc(F)cc4)c3F)ccn2n1 (single isomer, unassigned) [Example 84, 4-(3-(2-amino-[1,2,4]triazolo[1,5-a]pyridin-7-yl)-2-fluorophenoxy)-2-fluoro-1-(4-fluorophenyl)butan-1-ol] | 3.2
11 | CC(CC(F)(F)C(C)(O)c1ccc(F)cc1)Oc1c(F)ccc(-c2ccn3nc(N)nc3c2)c1F (single isomer, unassigned) [Example 126, 5-(3-(2-amino-[1,2,4]triazolo[1,5-a]pyridin-7-yl)-2,6-difluorophenoxy)-3,3-difluoro-2-(4-fluorophenyl)hexan-2-ol] | 370
12 | Cc1ccc(-c2ccn3nc(N)nc3c2)c(F)c1OCCC(F)(F)C(C)(O)c1ccc(F)cc1 (single isomer, unassigned) [Example 63, 5-(3-(2-amino-[1,2,4]triazolo[1,5-a]pyridin-7-yl)-2-fluoro-6-methylphenoxy)-3,3-difluoro-2-(4-fluorophenyl)pentan-2-ol] | 8
13 | CC(O)(c1ccc(F)cc1)C(F)(F)CCOc1ccc(F)c(-c2ccn3nc(N)nc3c2)c1F (single isomer, unassigned) [Example 8, 5-(3-(2-amino-[1,2,4]triazolo[1,5-a]pyridin-7-yl)-2,4-difluorophenoxy)-3,3-difluoro-2-(4-fluorophenyl)pentan-2-ol] | 9
14 | CC(O)(c1ccc(F)cc1)C(F)CCOc1c(F)ccc(-c2ccn3nc(N)nc3c2)c1F (single isomer, unassigned) [Example 94, 5-(3-(2-amino-[1,2,4]triazolo[1,5-a]pyridin-7-yl)-2,6-difluorophenoxy)-3-fluoro-2-(4-fluorophenyl)pentan-2-ol] | 97
15 | Nc1nc2cc(-c3ccc(F)c(OCCC(F)(F)C(O)c4ccc(F)cc4)c3F)ccn2n1 (single isomer, unassigned) [Example 56, 4-(3-(2-amino-[1,2,4]triazolo[1,5-a]pyridin-7-yl)-2,6-difluorophenoxy)-2,2-difluoro-1-(4-fluorophenyl)butan-1-ol] | 4
16 | CC(O)(c1ccc(Cl)cc1)C(F)(F)CCOc1c(Cl)ccc(-c2ccn3nc(N)nc3c2)c1F (single isomer, unassigned) [Example 44, 5-(3-(2-amino-[1,2,4]triazolo[1,5-a]pyridin-7-yl)-6-chloro-2-fluorophenoxy)-2-(4-chlorophenyl)-3,3-difluoropentan-2-ol] | 0.6
17 | CC(O)(c1ccc(F)cc1)C(F)CCOc1cccc(-c2ccn3nc(N)nc3c2)c1F (single isomer, unassigned) [Example 89, 5-(3-(2-amino-[1,2,4]triazolo[1,5-a]pyridin-7-yl)-2-fluorophenoxy)-3-fluoro-2-(4-fluorophenyl)pentan-2-ol] | 15
18 | CC(CC(F)(F)C(C)(O)c1ccc(F)cc1)Oc1c(F)ccc(-c2ccn3nc(N)nc3c2)c1F (single isomer, unassigned) [Example 129, 5-(3-(2-amino-[1,2,4]triazolo[1,5-a]pyridin-7-yl)-2,6-difluorophenoxy)-3,3-difluoro-2-(4-fluorophenyl)hexan-2-ol] | 70
19 | Nc1nc2cc(-c3cccc(OCCC(F)(F)C(N)c4ccc(F)cc4)c3F)ccn2n1 (single isomer, unassigned) [Example 61, 7-(3-(4-amino-3,3-difluoro-4-(4-fluorophenyl)butoxy)-2-fluorophenyl)-[1,2,4]triazolo[1,5-a]pyridin-2-amine] | 0.6
20 | CC(N)(c1ccc(F)cc1)C(F)(F)CCOc1c(F)ccc(-c2ccn3nc(N)nc3c2)c1F (single isomer, unassigned) [Example 17, 7-(3-((4-amino-3,3-difluoro-4-(4-fluorophenyl)pentyl)oxy)-2,4-difluorophenyl)-[1,2,4]triazolo[1,5-a]pyridin-2-amine] | 60
21 | CC(O)(c1cccc(F)c1)C(F)(F)CCOc1c(F)ccc(-c2ccn3nc(N)nc3c2)c1F (single isomer, unassigned) [Example 122, 5-(3-(2-amino-[1,2,4]triazolo[1,5-a]pyridin-7-yl)-2,6-difluorophenoxy)-3,3-difluoro-2-(3-fluorophenyl)pentan-2-ol] | 130
22 | Nc1nc2cc(-c3ccc(Cl)c(OCCC(F)C(O)c4ccc(F)cc4)c3F)ccn2n1 (single isomer, unassigned) [Example 98, 4-(3-(2-amino-[1,2,4]triazolo[1,5-a]pyridin-7-yl)-6-chloro-2-fluorophenoxy)-2-fluoro-1-(4-fluorophenyl)butan-1-ol] | 2
